Consider one compound from US20240335508A1, “HYBRID GOLD NANOPARTICLE-LIPID NANOPARTICLES AND METHODS OF USE AND PRODUCTION THEREOF” (THE BOARD OF REGENTS OF THE UNIVERSITY OF OKLAHOMA, priority 2023, published 2024).

The subject of the assay is TOV-112D cells. Put plainly: DOX AuNSV cytotoxicity, MTS assay. The assay is classed as cell-based. The conditions noted are these: 0.5 and 0.25 μg/mL DOX. As for the experimental part:
TOV-112D cells were cultured in RPMI 1640 media containing 10% FBS and 1% penicillin-streptomycin at 37° C. with 5% CO2. Cells were seeded on 96-well plates in 100 μL of media at 7,500 cells per well. The next day, cells were treated in triplicate with NSVs, AuNSVs, DOX, DOX NSVs, and DOX AuNSVs at concentrations of 0.5, 0.25, 0.1, and 0.05 μg/mL DOX equivalence. After 24, 48, and 72 hours of treatment, 10 μL of CellTiter 96® AQueous One Solution Cell Proliferation Assay (MTS) (Promega, Madison, WI) was added to each well and incubated for 3-4 hours. After incubation, the well absorbance was measured at 490 nm with a SPECTROstar plate reader with cell viability calculated from the ratio of absorbance between untreated controls and each treatment group.
On the technique in general: Tetrazolium assays rely on reduction of a dye to a coloured formazan, in cell work by metabolically active cells.

For `COc1cccc2c1C(=O)c1c(O)c3c(c(O)c1C2=O)C[C@@](O)(C(=O)CO)C[C@@H]3O[C@H]1C[C@H](N)[C@H](O)[C@H](C)O1` [DOX, Doxorubicin], the Cell viability entry is reported as “decreased cell viability faster than either the DOX NSV or DOX AuNSV”.
